Test results: article PMC7197350, “Targeted chemotherapy overcomes drug resistance in melanoma” (Genes & Development, 2020)

Key:
Assay in all cases: cells
Design in all cases: growth inhibition of A375 parental and resistant melanoma cells, dose-response curves
Details in all cases: Homo sapiens, A-375, 96 h; read-out: Phendione IC50
[1] = system: A375 BRAFi resistant
Method: (§1) Figure 2. Phendione is a small molecule inhibitor targeting PP2A. (A) Immunoblots of A375 cell lysates collected after 3 h of drug treatment as indicated; i.e., increasing concentrations of LB100 compared with 0.2 µM phendione (left) and increasing concentrations of phendione compared with 3 µM pyrene (right). DMSO was used as negative control (vehicle). (B) Growth inhibition curves of A375 cells and IC50 values after treatment with phendione or LB100 for 96 h. Data are presented as mean ± SD of three independent experiments. (C) Phosphatase activity assay for PP2A core enzyme (complex of regulatory subunit Aα and catalytic subunit Cα; top), PP1 catalytic subunit Cα (middle) and PP1 catalytic subunit Cβ (bottom) incubated with phendione or pyrene at indicated concentrations. […] IC50s (micromolar) were calculated and is shown as an inset in each graph. […] (G) Quantification of cell apoptosis measured by Annexin V staining flow cytometry. Parental A375 and A375 BRAFi-resistant cells were treated with vehicle or increasing concentration of phendione as indicated in the panels for 24 h before apoptotic cells were measured by flow cytometry. […] Representative images are shown at the left and quantification results are shown at the right. […] (I,J) Quantification of reactive oxygen species (ROS) production measured by flow cytometry in A375 (I) and A375 BRAFi-resistant (J) cells. […]

[2] = system: A375
Method: as §1

[3] = system: A375 BRAFi + MEKi resistant

## O=C1C(=O)c2cccnc2-c2ncccc21 [phendione, 1,10-phenanthroline-5,6-dione]
[1]
  IC50: 113 nM
[2]
  IC50: 94 nM
[3]
  IC50: 119 nM
